Source: patent publication US8299055B2, “8-substituted isoquinoline derivative and the use thereof” (Asahi Kasei Pharma Corporation, priority 2008, dated 2012)

System: mouse collagen-induced arthritis model
Experiment: Mouse collagen-induced arthritis model
Format: in vivo
Protocol: On Days 0 and 21, […] of chicken cartilage-derived collagen (Nippon Meat Packers, Inc., Japan) in 0.1 mL of complete Freund's adjuvant (Difco Laboratories, Inc., U.S.) was subcutaneously injected to female DBA/1J Jms Slc mice (6- to 8-week-old) (Japan SLC, Japan) to immunize the mice.
Among the compounds of the present invention, a representative test compound (Example compound 1-N-6 or 2-N-100) was orally administered twice daily every day from Day 21 to Day 34 at a dose of 25 or 50 mg/kg (method A) or from Day 21 to Day 29 at a dose of 1, 3, 10, or 30 mg/kg (method B). The solution for administration was prepared by using 0.5% w/v Methylcellulose 400 Solution (Wako Pure Chemical Industries, Ltd.) as a solvent.
After administration of collagen on Day 21, the extent of development of arthritis in the mouse limbs were scored by visually observing each limb periodically according to the clinical scores outlined in Table X-1.
The clinical scores for all four limbs were summed up for each mouse and the mean±standard error (SE) of each treatment group was calculated. Evaluation was performed until the following day of the final administration.

| Structure (SMILES) | toxicity (method B: oral twice daily Day 21 to Day 29, 1, 3, 10 or 30 mg/kg) | onset of arthritis (clinical scores) (method B: oral twice daily Day 21 to Day 29, 1, 3, 10 or 30 mg/kg, FIG. 2) | toxicity (method A: oral twice daily Day 21 to Day 34, 25 or 50 mg/kg) | onset of arthritis (clinical scores) (method A: oral twice daily Day 21 to Day 34, 25 or 50 mg/kg, FIG. 1) |
| --- | --- | --- | --- | --- |
| Cc1ccc(C(=O)N2CCC(Nc3cc(-c4cccc(C#N)c4)cc4ccncc34)CC2)cn1 [Example 2-N-100] | did not exhibit toxicity | suppressed the onset of arthritis | – | – |
| N#Cc1cccc(-c2cc(N3CCNCC3)c3cnccc3c2)c1 [Example 1-N-6] | – | – | did not exhibit toxicity | suppressed the onset of arthritis |
